Experimental data from PubChem BioAssay (NCI).
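48-hour exposure; five concentrations; linearly interpolated endpoints. GI50 marks 50% less growth. TGI: total growth inhibition.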

Columns and labels:
Assay in all cases: DTP human tumour cell line panel, 48 h
NCI-H23 lung = tested on: NCI-H23 lung
PC-3 prostate = tested on: PC-3 prostate
SF-539 CNS = tested on: SF-539 CNS
HCT-15 colon = tested on: HCT-15 colon
A498 renal = tested on: A498 renal
HOP-62 NSCLC = tested on: HOP-62 NSCLC
ACHN renal = tested on: ACHN renal
NCI-H226 lung = tested on: NCI-H226 lung
A549 NSCLC = tested on: A549 NSCLC
KM12 colon = tested on: KM12 colon
NCI-H522 lung = tested on: NCI-H522 lung
SK-MEL-2 melanoma = tested on: SK-MEL-2 melanoma
SF-268 CNS = tested on: SF-268 CNS
HL-60(TB) leukemia = tested on: HL-60(TB) leukemia
SK-MEL-5 melanoma = tested on: SK-MEL-5 melanoma
OVCAR-3 ovarian = tested on: OVCAR-3 ovarian
SF-295 CNS = tested on: SF-295 CNS
UO-31 renal = tested on: UO-31 renal
SNB-75 CNS = tested on: SNB-75 CNS
HT29 colon = tested on: HT29 colon
T-47D breast = tested on: T-47D breast
COLO 205 colon = tested on: COLO 205 colon
U251 CNS = tested on: U251 CNS
786-0 renal = tested on: 786-0 renal
IGROV1 ovarian = tested on: IGROV1 ovarian
LOX IMVI melanoma = tested on: LOX IMVI melanoma
HCC-2998 colon = tested on: HCC-2998 colon
SK-MEL-28 melanoma = tested on: SK-MEL-28 melanoma
OVCAR-4 ovarian = tested on: OVCAR-4 ovarian

Compound: COc1ccc(C2CC(c3cc(Cl)c(C)cc3O)=NN2c2ccc(S(N)(=O)=O)cc2)cc1OC (stereo not drawn)
- GI50 (NCI-H23 lung): 3.11 µM
- TGI (NCI-H23 lung): 13.6 µM
- GI50 (PC-3 prostate): 2610 nM
- TGI (PC-3 prostate): 13.7 µM
- GI50 (SF-539 CNS): 2100 nM
- TGI (SF-539 CNS): 4.75 µM
- GI50 (HCT-15 colon): 3.32 µM
- TGI (HCT-15 colon): 20.2 µM
- GI50 (A498 renal): 3.98 µM
- TGI (A498 renal): 24.7 µM
- GI50 (HOP-62 NSCLC): 3.92 µM
- TGI (HOP-62 NSCLC): 14.1 µM
- GI50 (ACHN renal): 3.15 µM
- TGI (ACHN renal): 12.2 µM
- GI50 (NCI-H226 lung): 5.62 µM
- TGI (NCI-H226 lung): 23.1 µM
- GI50 (A549 NSCLC): 3.54 µM
- TGI (A549 NSCLC): 19.7 µM
- GI50 (KM12 colon): 3.07 µM
- TGI (KM12 colon): 8.77 µM
- GI50 (NCI-H522 lung): 2950 nM
- TGI (NCI-H522 lung): 9.61 µM
- GI50 (SK-MEL-2 melanoma): 5.87 µM
- TGI (SK-MEL-2 melanoma): 32.7 µM
- GI50 (SF-268 CNS): 4.74 µM
- TGI (SF-268 CNS): > 100 µM
- GI50 (HL-60(TB) leukemia): 3.42 µM
- TGI (HL-60(TB) leukemia): > 100 µM
- GI50 (SK-MEL-5 melanoma): 4.28 µM
- TGI (SK-MEL-5 melanoma): 15.2 µM
- GI50 (OVCAR-3 ovarian): 3.37 µM
- TGI (OVCAR-3 ovarian): 9.8 µM
- GI50 (SF-295 CNS): 2700 nM
- TGI (SF-295 CNS): 6.24 µM
- GI50 (UO-31 renal): 3.3 µM
- TGI (UO-31 renal): > 100 µM
- GI50 (SNB-75 CNS): 2700 nM
- TGI (SNB-75 CNS): 97.2 µM
- GI50 (HT29 colon): 2240 nM
- TGI (HT29 colon): 6.48 µM
- GI50 (T-47D breast): 3.1 µM
- TGI (T-47D breast): 13.3 µM
- GI50 (COLO 205 colon): 1930 nM
- TGI (COLO 205 colon): 3.41 µM
- GI50 (U251 CNS): 3.71 µM
- TGI (U251 CNS): 14 µM
- GI50 (786-0 renal): 2370 nM
- TGI (786-0 renal): 5.04 µM
- GI50 (IGROV1 ovarian): 2340 nM
- TGI (IGROV1 ovarian): 5.46 µM
- GI50 (LOX IMVI melanoma): 3.35 µM
- TGI (LOX IMVI melanoma): 11 µM
- GI50 (HCC-2998 colon): 2720 nM
- TGI (HCC-2998 colon): 7.25 µM
- GI50 (SK-MEL-28 melanoma): 4.29 µM
- TGI (SK-MEL-28 melanoma): 17.7 µM
- GI50 (OVCAR-4 ovarian): 4.18 µM
- TGI (OVCAR-4 ovarian): > 100 µM
